Results taken from US7803792B2, “Quaternary ammonium compounds” (Asahi Kasei Pharma Corporation, priority 2002, dated 2010).

Tests used:
[1] = biological target: T1, rat IBAT (Rattus norvegicus, UniProt Q62633); experiment: In vitro assay of temporarily expressed rat IBAT transporter using Cos 7 cells (Test Example 8); assay type: cell-based; conditions: Cos 7 cells temporarily expressing rat IBAT; [3H] taurocholate 8 μM, 37° C., 60 minutes
T1 construct: expressed in transfected cells; host or cells: Cos 7
T1 sequence (Q62633 1-348): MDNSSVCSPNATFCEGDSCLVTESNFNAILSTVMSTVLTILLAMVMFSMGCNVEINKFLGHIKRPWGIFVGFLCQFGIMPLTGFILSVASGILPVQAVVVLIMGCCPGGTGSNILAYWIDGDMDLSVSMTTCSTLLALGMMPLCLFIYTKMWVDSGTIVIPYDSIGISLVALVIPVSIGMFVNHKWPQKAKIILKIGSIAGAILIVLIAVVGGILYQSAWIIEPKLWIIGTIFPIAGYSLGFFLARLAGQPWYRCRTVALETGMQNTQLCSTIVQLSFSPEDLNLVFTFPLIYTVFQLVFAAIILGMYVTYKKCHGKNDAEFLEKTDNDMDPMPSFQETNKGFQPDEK
Procedure: In Vitro Assay of Compounds Which Inhibit Temporarily Expressed Human IBAT Transporter or Rat IBAT Transporter Using Cos 7 Cells
In this test example, the in vitro assay of the compounds which inhibit temporarily expressed human IBAT transporter or rat IBAT transporter using Cos cells was carried out according to the method described in Am. J. Physiol., 274, G157-169.
That is, […] Cos 7 were inoculated on a 24-well cell plate. One day later, 0.3 μg per well of cDNA of a human IBAT or a rat IBAT was transfected by using FuGENE6 (manufactured by ROCHE PHARMACEUTICAL CO., LTD.). For the assay, the cells cultured for one day after the transfection were used and the following procedure was followed. The cells were washed once with an assay buffer, Hank's buffer solution containing 25 mM glucose and with 10 mM HEPES (pH 7.4), and then the assay buffer was replaced by an assay buffer to which the test compound was added. After adding [^3H] taurocholate to a final concentration of 8 μM, the cells were incubated at 37° C. for 60 minutes. [^3H] taurocholate was allowed to be incorporated in Cos 7 cells through human IBAT or rat IBAT. The reaction was stopped by washing twice with a buffer prepared by adding 1 mM taurocholate to the assay buffer and lyzing the cells with 0.2M NaOH. Measurement of radioactivity was carried out by introducing the cell lyzate in 4 ml of liquid scintillation cocktail, stirring the mixture well, and then measuring the radioactivity by a scintillation counter.

[2] = tested on: Cholic acid-loaded rat model; experiment: Bile acid-decreasing effect in portal vein of rats loaded with cholic acid (Test Example 2); assay type: in vivo; conditions: 0.1 mg/kg oral with cholic acid 200 mg/kg; portal vein blood after 2 hours; HCO-60 0.1%
Procedure: Bile Acid-Decreasing Effect in Portal Vein of Rats Loaded With Cholic Acid
In this test example, the test for confirming the bile acid-decreasing effect in portal vein of cholic acid-loaded rats was carried out according to the method described in Pharmacology and Therapeutics [Jpn Pharmacol. Ther., Vol. 24 Supplement, 1996, 103 (S-577)-110 (S-584)].
That is, 7 to 9 weeks old SD (IGS) rats were starved on the day before the test and thereafter. […] After 2 hours from the administration, a sample of blood was taken from a portal vein and total serum bile acid level was measured to study the effect of the test compound (n=6). Further, as a control group, a group (n=6) loaded with cholic acid (200 mg/kg) only was prepared and the same test procedure was followed. A commercially available kit (trade name: SOTANJUSAN-TEST WAKO-(SOTANJUSAN=total bile acid), manufactured by WAKO PURE CHEMICAL […], LTD.) was used for the measurement of bile acid. Assuming the value of the control group, which is a group in which no test compound was used, as 100%, the rate of decrease (percentage (%) of decrease) of the bile acid level when a fixed amount of the test compound was used was determined.

[3] = tested on: Caco 2 cells; experiment: Toxicity with respect to alimentary canal: cytotoxicity to Caco 2, LDH activity (Test Example 12); assay type: cell-based, human; conditions: LDH activity after 2 hours, relative to cytolytic agent = 100%
Summary of the method: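 Human Caco 2 intestinal cells, cultured 48 hours after seeding at 10,000 cells/well, received test compounds diluted in medium. LDH released into the medium after 2 hours was measured and expressed relative to cytolytic-agent-lysed cells (100%) as cytotoxicity.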

[4] = biological target: T2, human IBAT (Homo sapiens, UniProt Q12908); experiment: In vitro assay of temporarily expressed human IBAT transporter using Cos 7 cells (Test Example 8); assay type: cell-based; conditions: Cos 7 cells temporarily expressing human IBAT; [3H] taurocholate 8 μM, 37° C., 60 minutes
T2 construct: expressed in transfected cells; host or cells: Cos 7
T2 sequence (Q12908 1-348): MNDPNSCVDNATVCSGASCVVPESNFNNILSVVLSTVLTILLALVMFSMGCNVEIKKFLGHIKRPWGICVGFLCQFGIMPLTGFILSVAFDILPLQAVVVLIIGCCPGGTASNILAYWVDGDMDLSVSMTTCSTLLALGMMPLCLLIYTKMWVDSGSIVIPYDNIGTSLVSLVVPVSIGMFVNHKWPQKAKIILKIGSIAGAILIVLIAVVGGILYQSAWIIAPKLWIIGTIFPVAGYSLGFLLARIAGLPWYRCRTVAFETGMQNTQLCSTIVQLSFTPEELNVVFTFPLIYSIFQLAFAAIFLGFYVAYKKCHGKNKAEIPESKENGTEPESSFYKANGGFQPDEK
Summary of the method: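 Cos 7 cells transiently transfected with human or rat IBAT cDNA, assayed one day later in Hank's buffer with 25 mM glucose, 10 mM HEPES (pH 7.4) plus compound. Uptake of 8 μM [^3H]taurocholate over 60 min at 37 °C, stopped with 1 mM taurocholate washes; lysate radioactivity by scintillation counting.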

Row | Structure (SMILES) | IC50 [1] [nM] | Rate of decrease (%) of bile acid [2] [%] | Toxicity (%) to Caco 2 ([3]; 3 μM) [%] | Toxicity (%) to Caco 2 ([3]; 10 μM) [%] | Toxicity (%) to Caco 2 ([3]; 30 μM) [%] | IC50 [4] [nM]
1 | CCCCC1(CCCC)CS(=O)(=O)c2ccc(N(C)C)cc2C(c2cccc(NC(=S)Nc3ccc(C[N+]45CCC(CC4)CC5)cc3)c2)N1.[Br-] (stereo not drawn) [Example 3695] | 5 | 23 | <1 | <1 | <1 | 37
2 | CCCCC1(CCCC)CS(=O)(=O)c2ccc(N(C)C)cc2C(c2cccc(NC(=S)CCCCC[N+]34CCC(c5ccccc5)(CC3)CC4)c2)N1 (stereo not drawn) [Example 3853] | 9 | 36 | <1 | <1 | <1 | 28
